Laboratory results reported in patent US20250319206A1, “CRISPR/CAS GENE EDITING OF NEH4 AND/OR NEH5 DOMAINS IN NRF2” (Christina Care Gene Editing Institute, Inc., priority 2024, published 2025).

Key:
Panc-1 cells = assay: Cell viability with gemcitabine, CellTiter-Glo 2.0, Panc-1 cells; assay type: cell-based, Human; conditions: naïve (unedited) Panc-1 cells, 72 hours
Protocol: Wildtype and transfected Panc-1 cells were plated to 24 well plates (n=5) at 50,000 cells per well and placed in incubator for 24 hours. The cells were then treated with either Gemcitabine (Selleckchem, Cat. S1714) or DMSO (Thermo Fisher, Cat. D12345). Cells treated with Gemcitabine were treated at one of the following concentrations: 0 μM, 2.5 μM, 5 μM, 25 μM while cells treated with DMSO were treated at: 0%, 0.025%, 0.05%, or 0.25%. Cells remained in Gemcitabine or DMSO for 72 hours before being evaluated using CellTiter-Glo 2.0 Cell Viability Assay (Promega, Cat. G9241).
Since our long-term objective is to develop an effective genetic treatment that would augment standard care, we decided to examine the possibility that we could restore sensitivity to gemcitabine by genetic editing of NRF2 in gemcitabine resistant Panc1 cells. We are using gemcitabine as a selection system to determine if gene editing at some level, can help restore tumor cell killing. We established the kill curve of Panc1 unedited cells by gemcitabine under our standard reaction conditions to serve as a baseline. […] Again, after 72 hours, each cell population was exposed to gemcitabine for an additional 72 hours and thereafter cell viability of the treated and untreated cells was measured using the Cell Titer 2.0 viability assay (Promega, Madison, WI, USA). […]

NRF2 = NRF2 western blot in Panc-1 cells; assay type: cell-based, Human; conditions: edited Panc-1 populations vs unedited, GAPDH loading control
Protocol: Panc-1 cell pellets were collected using a standard RIPA lysis buffer containing protease inhibitor cocktail. Total protein concentration of collected cells was then determined using BCA Protein Assay kit (Pierce, Rockford, IL, USA). The samples were boiled at 95° C. for 10 minutes and then underwent SDS-PAGE on a 10% Mini-PROTEAN TGX Stain-free Protein Gel (BioRad, Cat. 4568033) for 90 min at 100 V. The gel was then transferred to a nitrocellulose membrane using Trans-Blot Turbo Transfer Systems (BioRad, Hercules, CA, USA) with Trans-Blot Turbo RTA Mini 0.2 μm Nitrocellulose Transfer Kit (BioRad Cat. 1704158), mixed molecular weight program, 10 minutes. The blot was placed in 5% milk and blocked at room temperature on shaker for 2 hours. Incubation in primary NRF2 antibody was done overnight at 4° C. on shaker (1:1,000, Abcam ab62352). Membrane was then incubated at room temperature on shaker for 1 hour in NRF2 secondary (1:10,000, Abcam ab205718). The SuperSignal West Dura Extended Duration ECL (Pierce) kit was used on the LI-COR Odyssey FC to visualize bands. […]

Compound	concentration of drug to achieve 75% killing (Panc-1 cells)	NRF2 protein knock down (NRF2)
Nc1ccn([C@@H]2O[C@H](CO)[C@@H](O)C2(F)F)c(=O)n1 [gemcitabine, reference compound]	~100 µM	–
sg5: gRNA targeting exon 3 of NRF2; CCTCATTGTCATCTACAAAC GGG (guide CCTCATTGTCATCTACAAACGGG; listed as DNA, chemistry not given here)	–	significant knockdown of protein
